Target: T1, topo IIα (Topo II) (Homo sapiens, UniProt P11388)
T1 construct: gene TOP2A
Assay: cell-free supercoiled pHOT1 plasmid DNA relaxation assay
Assay type: biochemical

T1 sequence (P11388 whole entry): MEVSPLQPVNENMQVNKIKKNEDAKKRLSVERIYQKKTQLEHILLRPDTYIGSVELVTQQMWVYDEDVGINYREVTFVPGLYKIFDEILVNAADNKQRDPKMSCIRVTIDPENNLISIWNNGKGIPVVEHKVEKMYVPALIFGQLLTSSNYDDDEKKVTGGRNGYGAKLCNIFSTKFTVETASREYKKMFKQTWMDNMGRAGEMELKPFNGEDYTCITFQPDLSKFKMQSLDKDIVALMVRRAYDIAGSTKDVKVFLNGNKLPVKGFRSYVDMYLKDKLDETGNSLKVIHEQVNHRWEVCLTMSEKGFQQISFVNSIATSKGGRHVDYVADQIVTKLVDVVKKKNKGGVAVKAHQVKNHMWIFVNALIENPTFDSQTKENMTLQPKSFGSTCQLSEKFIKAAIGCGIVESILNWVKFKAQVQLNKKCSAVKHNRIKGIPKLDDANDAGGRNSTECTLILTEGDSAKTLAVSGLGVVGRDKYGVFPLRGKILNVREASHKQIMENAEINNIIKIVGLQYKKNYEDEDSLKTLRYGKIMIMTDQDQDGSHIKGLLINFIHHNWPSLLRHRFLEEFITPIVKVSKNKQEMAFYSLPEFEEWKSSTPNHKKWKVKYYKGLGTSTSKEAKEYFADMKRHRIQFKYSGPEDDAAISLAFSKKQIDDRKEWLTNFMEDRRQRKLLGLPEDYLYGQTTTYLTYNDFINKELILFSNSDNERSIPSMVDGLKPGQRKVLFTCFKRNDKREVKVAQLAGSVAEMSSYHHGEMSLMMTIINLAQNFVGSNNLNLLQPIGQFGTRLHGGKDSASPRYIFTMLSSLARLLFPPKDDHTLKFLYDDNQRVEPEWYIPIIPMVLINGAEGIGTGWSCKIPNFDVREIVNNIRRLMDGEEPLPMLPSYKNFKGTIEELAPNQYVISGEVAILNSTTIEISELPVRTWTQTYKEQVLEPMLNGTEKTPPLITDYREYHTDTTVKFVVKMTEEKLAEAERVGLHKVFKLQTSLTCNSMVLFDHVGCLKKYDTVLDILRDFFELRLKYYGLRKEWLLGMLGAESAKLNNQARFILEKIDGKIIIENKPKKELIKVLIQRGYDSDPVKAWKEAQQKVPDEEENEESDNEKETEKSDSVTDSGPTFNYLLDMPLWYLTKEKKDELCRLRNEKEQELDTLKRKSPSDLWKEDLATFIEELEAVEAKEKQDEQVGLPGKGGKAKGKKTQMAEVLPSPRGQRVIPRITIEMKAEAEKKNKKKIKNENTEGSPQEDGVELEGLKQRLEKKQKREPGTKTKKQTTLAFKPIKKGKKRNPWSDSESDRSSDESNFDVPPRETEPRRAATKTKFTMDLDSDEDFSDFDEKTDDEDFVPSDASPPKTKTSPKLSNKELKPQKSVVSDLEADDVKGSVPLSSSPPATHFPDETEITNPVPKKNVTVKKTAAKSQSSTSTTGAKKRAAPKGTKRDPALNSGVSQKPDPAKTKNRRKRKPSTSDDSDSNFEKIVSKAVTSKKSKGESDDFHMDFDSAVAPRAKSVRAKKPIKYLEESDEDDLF

With `C[C@@]12CCCc3coc(c31)C(=O)c1cc3c(cc12)C(=O)C=CC3=O` [XQ, xestoquinone] the IC50 was 94 nM.
